We go through four compounds from patent publication US20090246134A1, “COMPOSITIONS AND METHODS FOR MODULATING GATED ION CHANNELS” (PainCeptor Pharma Corporation, priority 2007, published 2009).

A word on the IC50: it is the concentration that inhibits the measured activity by half.

A short description of data set [1]: Plasma composition analysis, parent compound and metabolites by MS. It counts as in vivo. The conditions noted are these: rat plasma; for Plasma Component: P-OH: Compound G: detected but not confirmed (footnote a). The procedure: Rats receive compounds (5 mg/kg) dissolved in HPβCD 15%, dextrose 2.5%, pH 5 by intravenous (i.v). route or (25-30 mg/kg) dissolved in HPβCD 15%, dextrose 2.5%, […] (s.c.) route or (50-150 mg/kg) dissolved in HPβCD 15%, dextrose 2.5%, pH 5 by oral (p.o.) route. After the treatment, approximately 100 μl of blood sample is collected and the accurate bleeding time is recorded for each sample. Each blood sample is collected into Microvette blood collection tube containing anticoagulant lithium heparin. Following collection, the samples are centrifuged at […] for 15 minutes (to avoid haemolysis) and the plasma obtained from each is recovered and stored frozen (at −80° C.) pending analysis. Frozen samples are shipped on dry ice to quantify drug concentration within plasma after extraction procedure as previously described in Example 13.

Data set [2] has as its target T1, ASIC1a (Homo sapiens, UniProt P78348).
T1 sequence (P78348 1-528): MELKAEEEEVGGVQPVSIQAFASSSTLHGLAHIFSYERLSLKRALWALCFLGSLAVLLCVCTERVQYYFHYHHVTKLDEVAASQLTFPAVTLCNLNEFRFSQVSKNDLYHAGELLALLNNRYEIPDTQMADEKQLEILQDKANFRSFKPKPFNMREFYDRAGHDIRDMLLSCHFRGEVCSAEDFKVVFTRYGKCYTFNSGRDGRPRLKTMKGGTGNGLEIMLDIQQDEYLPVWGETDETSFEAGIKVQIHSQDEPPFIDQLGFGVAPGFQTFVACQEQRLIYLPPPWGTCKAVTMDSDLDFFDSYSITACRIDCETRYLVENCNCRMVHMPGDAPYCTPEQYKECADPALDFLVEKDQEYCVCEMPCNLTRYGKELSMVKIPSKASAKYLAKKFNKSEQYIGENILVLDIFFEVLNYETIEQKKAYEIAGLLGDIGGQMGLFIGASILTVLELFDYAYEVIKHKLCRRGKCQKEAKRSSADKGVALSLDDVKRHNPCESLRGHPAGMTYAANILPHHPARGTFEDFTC
The data set can be described thus: Calcium-imaging (calcium mobilization, FLIPR) assay in ASIC1a expressing HEK293 cells. It counts as cell-based. The conditions noted are these: n=3-7, compounds not radiolabelled. Also noted: host or cells: HEK293. The procedure: ASIC1a expressing HEK293 cells are grown in culture medium (DMEM with 10% FBS), in polystyrene culture flasks ([…]) at 37° C. in a humidified atmosphere of 5% CO2. Confluency of cells should be 80-90% on day of plating. Cells are rinsed with 10 ml of PBS and re-suspended by addition of culture medium and trituration with a 25 ml pipette.
The cells are seeded at a density of approximately 1×10^6 cells/ml (100 μl/well) in black-walled, clear bottom, 96-well plates pre-treated with 10 mg/l poly-D-lysin (75 μl/well for ≧30 min). Plated cells were allowed to proliferate for 24 h before loading with dye.
Fluo-4/AM (1 mg, Molecular Probes) is dissolved in 912 μl DMSO. The Fluo-4/AM stock solution (1 mM) is diluted with culture medium to a final concentration of 2 μM (loading solution).
The culture medium is aspirated from the wells, and 50 μl of the Fluo-4/AM loading solution is added to each well. The cells are incubated at 37° C. for 30 min.
After the loading period, the loading solution is aspirated and the cells are washed twice with 100 μl modified Assay Buffer (145 mM NaCl, 5 mM KCl, 5 mM CaCl2, 1 mM MgCl2, 10 mM HEPES, pH 7.4) to remove extracellular dye. Following the second wash, 100 μl modified Assay Buffer is added to each well and the fluorescence is measured in FLIPR™ or FlexStation™ (Molecular Devices, USA), or any other suitable equipment known to the skilled in the art.
Temperature: Room temperature (20-22° C.)
First addition: 50 μl test solution at a rate of 30 μl/sec and a starting height of […]
Second addition: 50 μl MES solution (20 mM, 5 mM final concentration) at a rate of 35 μl/sec and a starting height of 150 μl.
Reading intervals: pre-incubation—10 sec×7 and 3 sec×3 antagonist phase—3 sec×17 and 10 sec×12
Addition plates (compound test plate and MES plate) are placed on the right and left positions in the FLIPR tray, respectively. Cell plates are placed in the middle position and the ASIC1a program is effectuated. FLIPR will then take the appropriate measurements in accordance with the interval settings above. Fluorescence obtained after stimulation is corrected for the mean basal fluorescence (in modified Assay Buffer).
The MES-induced peak calcium response, in the presence of test substance, is expressed relatively to the MES response alone. Test substances that block the MES-induced calcium response are re-tested in triplicates. Confirmed hits are picked for further characterization by performing full dose-response curves to determine potency of each hit compound as represented by the IC50 values (i.e., the concentration of the test substance which inhibits 50% of the MES-induced calcium response).
It is noted that the compounds below are not radiolabelled.
(Calcium flux is commonly read through the fluorescence of an indicator in the cells.)

The target in data set [3] is T1, ASIC1a. Nature of the data set: Whole cell patch clamp in heterologous expression system (CHO cells). The class given is cell-based. Also noted: expressed in transfected cells; host or cells: CHO cells. How it is done:
Another example of an in vitro assessment method consists of using mammalian heterologous expression systems, which are known to the skilled in the art, and include a variety of mammalian cell lines such as COS, HEK, e.g., HEK293 and/or CHO, cells. Cell lines are transfected with gated ion channel(s) and used to perform electrophysiology as follows:
All experiments are performed at room temperature (20-25° C.) in voltage clamp using conventional whole cell patch clamp methods (Neher, E., et al. (1978) Pfluegers Arch 375:219-228).
The amplifier used is the EPC-9 (HEKA-electronics, Lambrect, Germany) run by a Macintosh G3 computer via an ITC-16 interface. Experimental conditions are set with the Pulse-software accompanying the amplifier. Data is low pass filtered and sampled directly to hard-disk at a rate of 3 times the cut-off frequency.
Pipettes are pulled from borosilicate glass using a horizontal electrode puller (Zeitz-lnstrumente, Augsburg, Germany). The pipette resistances are 2-3 MOhms in the salt solutions used in these experiments. The pipette electrode is a chloridized silver wire, and the reference is a silver chloride pellet electrode (In Vivo Metric, Healdsburg, USA) fixed to the experimental chamber. The electrodes are zeroed with the open pipette in the bath just prior to sealing.
Coverslips with the cells are transferred to a 15 μl experimental chamber mounted on the stage of an inverted microscope (IMT-2, Olympus) supplied with Nomarski optics. Cells are continuously superfused with extracellular saline at a rate of 2.5 ml/min. After giga-seal formation, the whole cell configuration is attained by suction. The cells are held at a holding voltage of −60 mV and at the start of each experiment the current is continuously measured for 45 s to ensure a stable baseline. […] Current amplitudes are measured at the peak of the responses, and effect of the compounds is calculated as the amplitude at compound equilibrium divided by the amplitude of the current evoked by the pulse just before the compound was included. […]

The subject of data set [4] is CFA-induced change in weight bearing in Sprague-Dawley rats. The data set can be described thus: CFA model of chronic inflammatory pain, hindpaw weight bearing. The conditions noted are these: 24 h after CFA; 60 min after drug; Compound A 5, 10, 20 mg/kg i.p.; Compound H 10, 30, 60 mg/kg; morphine 3, 6, 10 mg/kg; n=7-8. It counts as in vivo, rat. The procedure:
Rats (body weight 260-300 g) were given a s.c. injection of CFA (50% in saline, 100 μl, Sigma) into the plantar surface of the hindpaw under brief halothane anaesthesia. After 24 h, they were then tested for hindpaw weight bearing responses, as assessed using an Incapacitance Tester (Linton Instrumentation, UK), (Zhu et al., 2005). The instrument incorporates a dual channel scale that separately measures the weight of the animal distributed to each hindpaw. While normal rats distribute their body weight equally between the two hindpaws (50-50), the discrepancy of weight distribution between an injured and non-injured paw is a natural reflection of the discomfort level in the injured paw (nocifensive behavior). The rats were placed in the plastic chamber designed so that each hindpaw rested on a separate transducer pad. […] For each rat, three readings from each paw were taken and then averaged. Side-to-side weight bearing difference was calculated as the average of the absolute value of the difference between two hindpaws from three trials (right paw reading-left paw reading).
Hindpaw weight bearing responses were measured in male Sprague-Dawley rats for 2-3 days prior to being given a hindpaw injection of CFA. Twenty-four hours later baseline responses were measured and rats were then administered Compound A (5, 10 and 20 mg/kg, i.p.), Compound H (10, 30 and 60 mg/kg) and morphine (3, 6 and 10 mg/kg). Weight bearing responses were then measured at 30, 60 and 120 min after drug or vehicle injection (data shown at 60 min.). […] All groups n=7-8.

Where [5] appears, read: IV 5 mg/kg (table of Compounds G and J).
The mark [6] stands for this setting: PO 50 mg/kg (table of Compounds G and J).

Turning to `CCN1CCc2c(-c3cc(Cl)ccc3OC)cc3c(c2C1)NC(=O)/C3=N/O` [Compound G, 5-(5-chloro-2-methoxyphenyl)-6,7,8,9-tetrahydro-3-(hydroxyimino)-8-ethyl-1H-pyrrolo[3,2-h]isoquinoline-2(3H)-one], the “Plasma Component: N-desEt” value in data set [1] (IV 5 mg/kg) and in data set [1] (PO 50 mg/kg) was “Small” in each case. In addition, the “Plasma Component: O-desMe” value in data set [1] (setting [5]) and in data set [1] (setting [6]) was “Small” each time. Also, the “Plasma Component: P-OH” value in data set [1] (IV 5 mg/kg) and in data set [1] (PO 50 mg/kg) was “Small ^a” throughout. In data set [2], the IC50 amounted to 300 nM.
`CCN1CCc2c(-c3ccccc3OC)cc3c(c2C1)NC(=O)/C3=N/O` [Compound J, 5-(2-methoxy-phenyl)-6,7,8,9-tetrahydro-3-(hydroxyimino)-8-ethyl-1H-pyrrolo[3,2-h]isoquinoline-2(3H)-one]: the “Plasma Component: N-desEt” value in data set [1] (IV 5 mg/kg) and in data set [1] (PO 50 mg/kg) was “Small” each time. For the same compound, the “Plasma Component: O-desMe” value in data set [1] (setting [5]) and in data set [1] (setting [6]) was “Small” each time. The “Plasma Component: P-OH” value in data set [1] (IV 5 mg/kg) and in data set [1] (PO 50 mg/kg) was “Small” each time. In addition, the IC50 in data set [2] is 700 nM.
For `N=C(N)NC(=O)c1nc(Cl)c(N)nc1N` [amiloride, reference compound], the “human ASIC1a pH-evoked response” value in data set [3] is given as “reduce the human ASIC1a pH-evoked response in CHO cells in a dose-dependent manner”.
Consider `CN1CC[C@]23c4c5ccc(O)c4O[C@H]2[C@@H](O)C=C[C@H]3[C@H]1C5` [morphine, reference compound], for which, in data set [4], the “CFA-induced change in weight bearing compared with vehicle” value is “marked dose-dependent attenuation”.
